In patent US20110239327A1, “Nematicidal Effects of Cysteine Proteinases and Methods of Use Thereof to Treat Nematode Infestation” (priority 2007, published 2011):
Entries after “also recorded” stand apart in the source; their conditions may differ.

Assays:
Meloidogyne spp. J2s = assay: In vitro mobility of Meloidogyne spp. J2s exposed to plant cysteine proteinases; format: cell-based, M. incognita or M. javanica
Description: Eggs of M. incognita race 1 from North Carolina State University, USA, and M. javanica from Portugal were collected from the roots of infected tomato plants grown in a glasshouse at 23° C. in a 16:8 h light-dark regime. Eggs were extracted using 1% hypochlorite (NaClO) solution (Hussey and Barker, 1973) or by picking egg masses from the infected roots. M. incognita and M. javanica were both used in the experiments and produced similar results. Juveniles (J2) were hatched from the eggs and egg masses in water. Globodera rostochiensis cysts were washed extensively in distilled water. Hatched J2s were obtained by incubating cysts in distilled water for 4 days followed by exposure to potato root diffusate (PRD).
Approximately 1000 J2s (second juvenile stage) of M. incognita or M. javanica were incubated per well of a 48-well plate with the following active enzyme concentrations (determined by E-64 titration) of papain dissolved in distilled water containing 16 mM L-cysteine (to activate the cysteine proteinase): 1.5 μM, 3 μM, 6.25 μM, 12.5 μM, 25 μM, 50 μM, 75 μM and 100 μM. […] The number of active J2s per well was counted prior to the addition of papain, and then the J2s were incubated in the dark at room temperature for 3 h. The number of mobile J2s per well was counted after 60, 120 and 180 mins. […]

M. incognita J2 [1] = assay: In planta bioassay, two soil applications: nematode infection of tomato roots; format: in vivo, M. incognita on tomato plants
Description: Oxamyl is supplied as 10% liquid Vydate. 125 μl of a solution 1000 fold dilution of 10% formulation (kindly supplied by DK from NIU) was applied to 5 g of the soil mixture with 16% organic matter, to give a partial nematicidal effect. Soil mixtures were wetted with PBS pH 7.2, 16 hrs prior nematode application of 1000 or 2000 M. incognita J2. Infected soil mixtures were treated with water (control) or 250 μM of active papain in 16 mM of L-cysteine or a combination of Vydate and 250 μM of active papain in 16 mM of L-cysteine. After 48 hs tomato seedlings one month old were added to the treated soils. After 11 days the roots were washed free of soil and chopped to approximately 2 mm pieces. The root pieces of each tomato plant was placed in muslin bags and stained with acid-fuchsin. The stained roots were examined under microscope and all the nematodes present in the roots were counted. […] After 48 hours tomato seedlings one month old were added to the treated soils and after 11 days post infection nematode development inside root tissues was assessed as described above.
The avermectins are macrocyclic lactones produced by the actinomycete Streptomyces avermitilis. […] After 48 hs tomato seedlings one month old were added to the treated soils and after 11 days post infection nematode development inside root tissues was assessed as described above. […]

larvae in infected soil = conditions: cited from earlier work
M. incognita J2 [2] = assay: In vitro assay of M. incognita J2 present in soil mixtures; format: cell-based; conditions: Triton x-100 (1%), Milk (5%)
Description: The same procedure described above was used to determine the effect of the cysteine proteinases against M. incognita J2 present in soil mixtures. The following soil mixtures were used: fine and coarse sand, peat and fine/coarse sand and loam mix and fine/coarse sand. These soil mixtures were prepared at concentrations of 1:1, 1:3 and 1:6 and autoclaved at […] for 20 min. Peat and loam-mix were obtained from Rothamsted-Research. Soil mixtures were added to 24 well plates (0.5 g) and wetted for 16 hs with either PBS ph 7.2, Tx-100, Milk 5% or cysteine proteinases, in order to wet the soil and block non-specific binding sites present in the soil particles. Then, approximately 100 J2 were added to the wells, followed by cysteine proteinases with 16 mM of L-cysteine to activate the cysteine proteinases or water as control. After 16 hs at room temperature in the dark, individual wells of the 24 well plates were flushed with 1 ml of distilled water to recover the nematodes from the soil mixtures. These were placed in a 24 well plate and the number of dead/live nematodes scored under microscopic observation.
These in vitro experiments were performed in 24 well plates using sterile soil mixtures to diminish the possibility of biological degradation of the enzyme by microorganisms. […] The number of live nematodes was counted before and after enzyme treatment. […]

M. incognita J2 [3] = assay: In vitro live/dead count of M. incognita J2 in solution without soil (Example 2); format: cell-based
Description: Eggs of M. incognita race 1 from North Carolina State University, USA were collected from tomato-infected roots grown in a glasshouse at 23° C. in a 16:8 h light-dark regime. Eggs were extracted using 1% hypochlorite (NaClO) solution (Hussey and Barker, 1973) or by picking egg masses from tomato-infected roots. Juveniles (J2) were hatched from the eggs and egg masses in water. Heterodera glycines eggs were obtained from soil samples stored in Rothamsted-Research. Second stage juveniles (J2) were hatched from the eggs in water after 10 days. Pratylenchus penetrans were a gift from Dr. Deeren Anne-Marie from the Institute for Agricultural and Fisheries Research, Merelbeke, Belgium. The beneficial nematodes Steinernema feltiae and Heterorhabditis megidis were a gift from Dr. Paul Williams from Becker Underwood. […]
Control wells were set up which contained J2s and distilled water with 16 mM L-cysteine. […] The actual number of active J2s per well was counted with the aid of an Olympus inverted microscope, prior to the addition of the enzymes, and then the J2s were incubated in the dark at room temperature for 2 hs, 16 hs, 24 hs or 40 hr. The number of live and dead J2s per well was counted after each enzyme incubation. […]

Steinernema feltiae = assay: In vitro effect on the beneficial nematode Steinernema feltiae; format: cell-based
Description: (§1) Eggs of M. incognita race 1 from North Carolina State University, USA were collected from tomato-infected roots grown in a glasshouse at 23° C. in a 16:8 h light-dark regime. Eggs were extracted using 1% hypochlorite (NaClO) solution (Hussey and Barker, 1973) or by picking egg masses from tomato-infected roots. Juveniles (J2) were hatched from the eggs and egg masses in water. Heterodera glycines eggs were obtained from soil samples stored in Rothamsted-Research. Second stage juveniles (J2) were hatched from the eggs in water after 10 days. Pratylenchus penetrans were a gift from Dr. Deeren Anne-Marie from the Institute for Agricultural and Fisheries Research, Merelbeke, Belgium. The beneficial nematodes Steinernema feltiae and Heterorhabditis megidis were a gift from Dr. Paul Williams from Becker Underwood.
Control wells were set up which contained J2s and distilled water with 16 mM L-cysteine. Each enzyme concentration and the controls were set up in duplicate (i.e. n=2). The actual number of active J2s per well was counted with the aid of an Olympus inverted microscope, prior to the addition of the enzymes, and then the J2s were incubated in the dark at room temperature for 2 hs, 16 hs, 24 hs or 40 hr. The number of live and dead J2s per well was counted after each enzyme incubation. […]

Pratylenchus penetrans = assay: In vitro live/dead count of Pratylenchus penetrans; format: cell-based
Description: as §1
Control wells were set up which contained J2s and distilled water with 16 mM L-cysteine. Each enzyme concentration and the controls were set up in duplicate (i.e. n=2). […] The number of live and dead J2s per well was counted after each enzyme incubation. The same procedure was followed when setting up further experiments to compare the effects of these enzymes with Heterodera glycines J2, Pratylenchus penetrans, Steinernema feltiae and Heterorhabditis megidis.

Heterorhabditis megidis = assay: In vitro effect on the beneficial nematode Heterorhabditis megidis; format: cell-based
Description: as §1
Control wells were set up which contained J2s and distilled water with 16 mM L-cysteine. Each enzyme concentration and the controls were set up in duplicate (i.e. n=2). The actual number of active J2s per well was counted with the aid of an Olympus inverted microscope, prior to the addition of the enzymes, and then the J2s were incubated in the dark at room temperature for 2 hs, 16 hs, 24 hs or 40 hr. The number of live and dead J2s per well was counted after each enzyme incubation. The same procedure was followed when setting up further experiments to compare the effects of these enzymes with Heterodera glycines J2, Pratylenchus penetrans, Steinernema feltiae and Heterorhabditis megidis.
The beneficial nematodes Hetorhabditis megidis and Steinernema feltiae were incubated with dilutions of actinidin, bromelain and pappain from papaya latex (see concentrations used in table 3). These nematodes reacted differentially to these cysteine proteinases (Tables 4 and 5). […] S. feltiae were dead at all concentrations of actinidin tested. […] After 16 hs of observation the enzyme solutions were diluted with water (to half of the initial concentrations) however, no change in nematode movement was observed after 24 hs.

CC(C)C[C@H](NC(=O)[C@H]1O[C@@H]1C(=O)O)C(=O)NCCCCN=C(N)N (relative stereo) [E-64, L-trans-epoxysuccinyl-leucylamido(4-guanidino)butane, reference compound]
proportion of active worms on addition of E-64 (Meloidogyne spp. J2s; 1 mM E-64, J2s incubated without enzyme): No change in the proportion of active worms

Abamectin
nematicidal effect (reduction of nematode infection) (M. incognita J2 [1]; nematicide alone, no enzyme): 94% | larvae development allowed (larvae in infected soil; 300 μl of abamectin solution (100 mg/l) to 50 g of infected soil): 0% | larvae allowed to develop (larvae in infected soil; 2000 (so in the source) of abamectin solution (100 mg/l) to 50 g of infected soil): 75%

Triton x-100
effect of blocking agents on nematode mobility (M. incognita J2 [2]): slightly affected nematode mobility

stem bromelain
proportion of active Meloidogyne spp. J2s relative to control (Meloidogyne spp. J2s; 25 μM active enzyme): significant reduction; also recorded: Reductions in the proportion of active worms were evident | recovery of movement (M. incognita J2 [3]; after 40 hs of observation, at the nematicidal concentration): not able to recover movement | concentration of active bromelain with nematicidal effect (M. incognita J2 [3]; in solution without soil): 1 mM | bromelain concentrations at which no effect was observed (Steinernema feltiae): below 280 uM | effect on S. feltiae movement (Steinernema feltiae; high concentrations of bromelain): affected S. feltiae movement slightly | concentration of bromelain that killed the nematodes (Pratylenchus penetrans): 560 µM | recovery of mobility (Pratylenchus penetrans; after 48 hs): no recovery of mobility | reduction of nematode infection of plants (M. incognita J2 [1]; two soil applications of enzyme (250 μM papain, 2.2 μM bromelain, 3.3 mM actinidin as printed), soil 16% organic matter, 11 days): 95% | nematode motility or behaviour (Heterorhabditis megidis; enzyme concentration A (Table 3): actinidin 3.3 mM, bromelain 2.2 mM, papain 250 uM): All paralysed | nematode motility or behaviour (Heterorhabditis megidis; enzyme concentration B: actinidin 1.7 mM, bromelain 1.1 mM, papain 125 uM): All paralysed | nematode motility or behaviour (Heterorhabditis megidis; enzyme concentration C: actinidin 840 uM, bromelain 560 uM, papain 62.5 uM): All paralysed | effect on H. megidis (Heterorhabditis megidis; higher concentrations): paralysed | effect on H. megidis (Heterorhabditis megidis; lower concentrations): only affected slightly
